# Assay results reported in patent US7094423B1, “Methods for preparation of lipid-encapsulated therapeutic agents” (INEX Pharmaceuticals Corp., priority 1999, dated 2006).
# Where “and” joins values, the source holds several entries; their conditions need not be identical. Identical values can stand only once.
# Tests used:
# Format in all cases: physicochemical
# [1] = Leakage experiments: ethanol-induced permeabilization of LUVs; conditions: DSPC/Chol/PEG-CerC14/DODAP liposomes, 40° C.
# Experimental: Leakage experiments. Ethanol-induced permeabilization of LUVs was measured at different temperatures and as a function of the size (MW) of the entrapped solute. […] Leakage of calcein entrapped at self-quenching concentrations was followed by monitoring the dequenching of the calcein fluorescence. LUVs were prepared by hydration of a lipid film with an aqueous solution containing 75 mM calcein and 5 mM HEPES adjusted to pH 7.5 by addition of sodium hydroxide, followed by 5 freeze/thaw cycles and extrusion through 2 stacked 100 nm filters (10 passes). In the case of […] extrusion was performed at 60° C. Unentrapped calcein was exchanged against an isoosmotic HBS buffer by anion exchange chromatography on a DEAE Sepharose CL6B column. The liposome stock solution was diluted to a lipid concentration of 3 μM in HBS containing varying amounts of ethanol pre-equilibrated at 25, 40 or 60° C. The fluorescence at 520 nm was measured (excitation wavelength […], long-pass filter at 430 nm) with a Perkin Elmer LS50 Fluorimeter (Perkin Elmer) after 5 min of incubation at the corresponding temperature. […] The FITC/LRh-PE ratio was measured before and after addition of ethanol. FITC and LRh-PE fluorescence were measured at 515 nm and 590 nm with the excitation wavelength set to 485 nm and 560 nm, respectively.
# [2] = Trapping efficiency of oligonucleotide in liposomes after anion exchange chromatography; conditions: DSPC/Chol/DODAP/PEG-CerC14 liposomes; initial ATP-to-lipid ratio 0.2 mg/mg; 50 mM citrate buffer
# [3] = Dynamic light scattering: vesicle size; conditions: for Size [nm]: DSPC/Chol/DODAP/PEG-CerC14 20/45/25/10 mol %, initial oligonucleotide-to-lipid 0.23 mg/mg, number-averaged
# Experimental: Dynamic light scattering. Sizes were determined by dynamic light scattering using a NICOMP 370 particle sizer (Nicomp Particle Sizing Inc., Santa Barbara, Calif.). Throughout the application, number-averaged sizes are presented, which were obtained by a cumulant fit from the experimental correlation functions. The polydispersity is expressed as the half-width at half-height of a monomodal Gaussian size distribution. The viscosity of the ethanol/citrate buffer was determined using an Ubelohde-type viscometer (Cannon 50). […] The zeta potential was determined by electrophoretic light scattering using a Coulter light scattering instrument (DELSA, Coulter Electronics Inc., FL).
# [4] = OliGreen assay: percentage of oligo that is encapsulated; conditions: for Encap Oligo %: Ex. 2 procedure
# Experimental: The Oligreen Assay was used to quantify the amount of oligonucleotide loaded into the vesicles. A fluorescent dye binding assay for quantifying single stranded oligonucleotide in aqueous solutions was established using a Biolumin™ 960 fluorescent plate reader (Molecular Dynamics, Sunnyvale, Calif., USA). Briefly, aliquots of encapsulated oligonucleotide were diluted in HEPES buffered saline (HBS; 20 mM HEPES, 145 mM NaCl, pH 7.5). A 10 μL aliquot of the diluted sample was added to 100 μL of a 1:200 dilution of Oligreen™ reagent, both with and without 0.1% of Triton X-100 detergent. An oligo standard curve was prepared with and without 0.1% Triton X-100 for quantification of encapsulated oligo. Fluorescence of the Oligreen™-antisense complex was measured using excitation and emission wavelengths of 485 nm and 520 nm, respectively. Surface associated antisense was determined by comparing the fluorescence measurements in the absence and presence of detergent.
# (§1) [formula] The percentage of oligo that is encapsulated (i.e., incorporated in bilayers or entrapped in the interior of the lipid particle) was determined with the OliGreen assay described above.
# [5] = Trapping efficiency of oligonucleotide in liposomes after anion exchange chromatography
# Experimental: Entrapment procedure. […] At pH 7.5 DODAP becomes charge-neutral and oligonucleotides bound to the external membrane surface are released from their association with the cationic lipid. Unencapsulated oligonucleotides were subsequently removed by anion exchange chromatography on DEAE-sepharose CL-6B columns equilibrated in HBS pH 7.5. When octylglucoside was used in place of ethanol the detergent was added to liposomes (1:1 v/v) to final concentrations ranging from 30–40 mM. All the subsequent steps were performed as described above except for the initial dialysis step against pH 4 citrate buffer, which was extended to 5 hrs. In the following examples, if not otherwise mentioned, DSPC/Chol/PEG-CerC14/DODAP liposomes (20:45:10:25 mol %), c-myc (Seq. ID No. 1), 40% (v/v) ethanol, 300 mM citrate buffer and incubation at 40° C. were used.
# Determination of trapping efficiencies: Trapping efficiencies were determined after removal of external oligonucleotides by anion exchange chromatography. Oligonucleotide concentrations were determined by UV-spectroscopy on a Shimadzu UV160U spectrophotometer. The absorbance at 260 nm was measured after solubilization of the samples in chloroform/methanol at a volume ratio of 1:2.1:1 chloroform/methanol/aqueous phase (sample/HBS). If the solution was not completely clear after mixing an additional 50–100 μl of methanol was added. Alternatively, absorbance was read after solubilization of the samples in 100 mM octylglucoside. The antisense concentrations were calculated according to: c [μg/μl]=A260*1 OD260 unit [μg/μl]*dilution factor [μg/μl], where the dilution factor is given by the total assay volume […] divided by the sample volume [μl]. OD260 units were calculated from pairwise extinction coefficients for individual deoxy-nucleotides, which take into account nearest neighbor interactions. 1OD corresponds to 30.97 μg/ml c-myc (Seq. ID. No 1), 33.37 μg/ml h-ICAM-1 (Seq. ID No. 2) and 34 μg/ml EGFR (Seq. ID No. 3). Lipid concentrations were determined by the inorganic phosphorus assay after separation of the lipids from the oligonucleotides by a Bligh and Dyer extraction (Bligh and Dyer, 1959). Briefly, to 250 μl of aqueous phase (sample/HBS) 525 μl methanol and 250 μl chloroform were added to form a clear single phase (aqueous phase/methanol/chlorofrom 1:2.1:1 vol). If the solution was not clear a small amount of methanol was added. Subsequently, 250 μl HBS and an equal volume of chloroform were added. The samples were mixed and centrifuged for 5–10 min at 3000 rpm. […] The chloroform phase was assayed for phospholipid content according to the method of Fiske and Subbarrow (1925). If not otherwise mentioned, trapping efficiencies were expressed as oligonucleotide-to-lipid weight ratios [w/w].
# [6] = Final drug/lipid ratio and encapsulation efficiency (E.E.)
# Experimental: The procedure of Example 2 was repeated with changes to various parameters to determine which might be critical to the preparation of fully lipid-encapsulated therapeutic agent particles in accordance with the invention. In these experiments, the total oligonucleotide recovery (yield), the total lipid recovery (yield) and the encapsulation efficiency were considered as indications of the quality of the product and the process. Total oligonucleotide recovery was calculated using the formula:
# [formula] Encapsulation Efficiency (E.E.) was calculated using the formula:
# as §1
# [7] = 2.5 mol % PEG-CerC14, 40% ethanol, initial oligonucleotide-to-lipid 0.037 mol/mol, listed as c-myc
# [8] = 5 mol % PEG-CerC14, 40% ethanol, initial oligonucleotide-to-lipid 0.037 mol/mol
# [9] = 10 mol % PEG-CerC14, 40% ethanol, initial oligonucleotide-to-lipid 0.037 mol/mol, listed as c-myc
# [10] = DSPC/Chol/DODAP liposomes (no modified lipid), 0% EtOH [v/v], molar ODN/lipid 0.035, pH 4
# [11] = DSPC/Chol/DODAP liposomes (no modified lipid), 20% EtOH [v/v], molar ODN/lipid 0.035, pH 4
# [12] = DSPC/Chol/DODAP liposomes (no modified lipid), 30% EtOH [v/v], molar ODN/lipid 0.035, pH 4
# [13] = Ex. 2 procedure, initial drug/lipid ratio 0.1
# [14] = Ex. 2 procedure, initial drug/lipid ratio 0.2
# [15] = citrate buffer 50 mM, initial drug/lipid 0.1
# [16] = citrate buffer 100 mM, initial drug/lipid 0.1
# [17] = citrate buffer 200 mM, initial drug/lipid 0.1
# [18] = citrate buffer 300 mM, initial drug/lipid 0.1
# [19] = incubation temp RT(20–22) °C, 1 hour
# [20] = initial EtOH 33%, initial drug/lipid 0.2
# [21] = initial EtOH 36%, initial drug/lipid 0.1
# [22] = initial EtOH 40%, initial drug/lipid 0.2
# [23] = initial EtOH 43%, initial drug/lipid 0.1
# [24] = initial EtOH 43%, initial drug/lipid 0.2
# [25] = initial EtOH 45%, initial drug/lipid 0.1
# [26] = oligo stock 10 mg/ml, initial drug/lipid 0.1
# [27] = oligo stock 20 mg/ml, initial drug/lipid 0.1
# [28] = oligo stock 30 mg/ml, initial drug/lipid 0.1
# [29] = oligo stock 40–50 mg/ml, initial drug/lipid 0.1
molecule,measurement,setting,value
O=C(O)CN(CC(=O)O)Cc1cc2c(cc1O)Oc1cc(O)c(CN(CC(=O)O)CC(=O)O)cc1C21OC(=O)c2ccccc21 [calcein],ethanol concentration at which leakage reaches a maximum,[1],around 40 % ethanol
same,ethanol concentration at which leakage starts,[1],≤ 30 % ethanol
Nc1ncnc2c1ncn2[C@@H]1O[C@H](COP(=O)(O)OP(=O)(O)OP(=O)(O)O)[C@@H](O)[C@H]1O [ATP],fraction entrapped,[2],less than 10%
"5′-TAACGTTGAGGGGCAT-3′ (listed as DNA, chemistry not given here) [INX-6295]",Average size [nm],"[3]; 2.5 mol % PEG-CerC14, 25% ethanol, initial oligonucleotide-to-lipid 0.037 mol/mol",125 ± 35 (108 ± 26) nm
same,Average size [nm],[3]; [7],131±40 nm and 131 ± 40 (108 ± 26) nm
same,Average size [nm],[3]; [8],126 ± 36 (107 ± 22) nm
same,Average size [nm],"[3]; 10 mol % PEG-CerC14, 25% ethanol, initial oligonucleotide-to-lipid 0.037 mol/mol",92 ± 18 (93 ± 18) nm
same,Average size [nm],[3]; [9],100±26 nm and 100 ± 26 (93 ± 18) nm
same,Average size [nm],[3]; [10],148 ± 56 nm
same,Average size [nm],[3]; [11],226 ± 104 nm
same,Average size [nm],[3]; [12],470 ± 244 nm
same,Vesicle Size (nm),[3]; [13],106 nm
same,Vesicle Size (nm),[3]; [14],119 nm
same,Size [nm],[3]; OGP 30 mM in place of ethanol,65 ± 12 nm
same,Size [nm],[3]; OGP 35 mM in place of ethanol,100 ± 22 nm
same,Size [nm],[3]; OGP 40 mM in place of ethanol,145 ± 38 nm
same,Vesicle Size (nm),[3]; [15],80 nm
same,Vesicle Size (nm),[3]; [16],90 nm
same,Vesicle Size (nm),[3]; [17],93 nm
same,Vesicle Size (nm),[3]; [18],106 nm
same,Vesicle Size (nm),"[3]; incubation temp 40 °C, 1 hour",109 nm
same,Vesicle Size (nm),"[3]; incubation temp 60 °C, 1 hour",140 nm
same,Vesicle Size (nm),[3]; [19],114 nm
same,Vesicle Size (nm),[3]; [20],115 nm
same,Vesicle Size (nm),[3]; [21],110 nm
same,Vesicle Size (nm),[3]; [22],114 nm
same,Vesicle Size (nm),[3]; [23],116 nm
same,Vesicle Size (nm),[3]; [24],105 nm
same,Vesicle Size (nm),[3]; [25],108 nm
same,size and polydispersity of liposomes,[3]; initial ODN-to-lipid weight ratio of 0.2,110±30 nm
same,Vesicle Size (nm),[3]; [26],106 nm
same,Vesicle Size (nm),[3]; [27],112 nm
same,Vesicle Size (nm),[3]; [28],110 nm
same,Vesicle Size (nm),[3]; [29],106 nm
same,Encap Oligo %,[4]; initial drug/lipid ratio 0.1,≧90%
same,Encap Oligo %,[4]; initial drug/lipid ratio 0.2,≧80%
same,Encapsulated Oligo %,[4]; [15],94%
same,Encapsulated Oligo %,[4]; [16],90%
same,Encapsulated Oligo %,[4]; [17],91%
same,Encapsulated Oligo %,[4]; [18],92%
same,Encaps Oligo %,"[4]; incubation temp 40 °C, 1 hour",91%
same,Encaps Oligo %,"[4]; incubation temp 60 °C, 1 hour",83%
same,Encaps Oligo %,[4]; [19],90%
same,Encapsulated Oligo %,[4]; incubation time 0.5 hr at 40° C.,92%
same,Encapsulated Oligo %,[4]; incubation time 1 hr at 40° C.,94%
same,Encapsulated Oligo %,[4]; incubation time 2 hr at 40° C.,95%
same,Encaps Oligo %,[4]; [20],88%
same,Encaps Oligo %,[4]; [21],85–89%
same,Encaps Oligo %,[4]; [22],82%
same,Encaps Oligo %,[4]; [23],84–89%
same,Encaps Oligo %,[4]; [24],62%
same,Encaps Oligo %,[4]; [25],90–92%
same,Encaps Oligo %,[4]; [26],90%
same,Encaps Oligo %,[4]; [27],88%
same,Encaps Oligo %,[4]; [28],90%
same,Encaps Oligo %,[4]; [29],88–94%
same,% encapsulation,[5]; [7],45% and 45.7%
same,% encapsulation,[5]; [8],50.9%
same,% encapsulation,"[5]; 10 mol % PEG-CerC14, 25% ethanol, initial oligonucleotide-to-lipid 0.037 mol/mol, listed as c-myc",5%
same,% encapsulation,[5]; [9],60% and 56.5%
same,final antisense-to-lipid ratio,"[5]; 10 mol % PEG-CerC14 liposomes, initial antisense-to-lipid weight ratio 0.29",0.16
same,% encapsulation,[5]; [10],4.4%
same,% encapsulation,[5]; [11],20.5%
same,% encapsulation,[5]; [12],32.5%
same,% encapsulation,"[5]; OGP 30 mM in place of ethanol, DSPC/Chol/DODAP/PEG-CerC14 20/45/25/10 mol %, initial oligonucleotide-to-lipid 0.23 mg/mg",51%
same,% encapsulation,"[5]; OGP 35 mM in place of ethanol, DSPC/Chol/DODAP/PEG-CerC14 20/45/25/10 mol %, initial oligonucleotide-to-lipid 0.23 mg/mg",57%
same,% encapsulation,"[5]; OGP 40 mM in place of ethanol, DSPC/Chol/DODAP/PEG-CerC14 20/45/25/10 mol %, initial oligonucleotide-to-lipid 0.23 mg/mg",55%
same,oligonucleotide molecules per 100 nm liposome,[5]; at maximum entrapment,approximately 2250
same,E.E. %,[6]; [13],100%
same,Final Drug/Lipid Ratio,[6]; [13],0.1
same,Final Drug/Lipid Ratio,[6]; [14],0.17–0.2
same,E.E. %,[6]; [20],60%
same,Final Drug/Lipid,[6]; [20],0.12
same,E.E. %,[6]; [22],75%
same,Final Drug/Lipid,[6]; [22],0.15
same,E.E. %,[6]; [24],95%
same,Final Drug/Lipid,[6]; [24],0.19
